Results taken from patent publication US11427548B2 (Arvinas Operations, Inc., priority 2015, dated 2022).
Read-outs that look alike come from different tables or passages of the source.

Biological target: T1, Androgen Receptor (Homo sapiens, UniProt P10275)
T1 construct: endogenous in cells; host or cells: VCaP cells
T1 sequence (P10275 1-920): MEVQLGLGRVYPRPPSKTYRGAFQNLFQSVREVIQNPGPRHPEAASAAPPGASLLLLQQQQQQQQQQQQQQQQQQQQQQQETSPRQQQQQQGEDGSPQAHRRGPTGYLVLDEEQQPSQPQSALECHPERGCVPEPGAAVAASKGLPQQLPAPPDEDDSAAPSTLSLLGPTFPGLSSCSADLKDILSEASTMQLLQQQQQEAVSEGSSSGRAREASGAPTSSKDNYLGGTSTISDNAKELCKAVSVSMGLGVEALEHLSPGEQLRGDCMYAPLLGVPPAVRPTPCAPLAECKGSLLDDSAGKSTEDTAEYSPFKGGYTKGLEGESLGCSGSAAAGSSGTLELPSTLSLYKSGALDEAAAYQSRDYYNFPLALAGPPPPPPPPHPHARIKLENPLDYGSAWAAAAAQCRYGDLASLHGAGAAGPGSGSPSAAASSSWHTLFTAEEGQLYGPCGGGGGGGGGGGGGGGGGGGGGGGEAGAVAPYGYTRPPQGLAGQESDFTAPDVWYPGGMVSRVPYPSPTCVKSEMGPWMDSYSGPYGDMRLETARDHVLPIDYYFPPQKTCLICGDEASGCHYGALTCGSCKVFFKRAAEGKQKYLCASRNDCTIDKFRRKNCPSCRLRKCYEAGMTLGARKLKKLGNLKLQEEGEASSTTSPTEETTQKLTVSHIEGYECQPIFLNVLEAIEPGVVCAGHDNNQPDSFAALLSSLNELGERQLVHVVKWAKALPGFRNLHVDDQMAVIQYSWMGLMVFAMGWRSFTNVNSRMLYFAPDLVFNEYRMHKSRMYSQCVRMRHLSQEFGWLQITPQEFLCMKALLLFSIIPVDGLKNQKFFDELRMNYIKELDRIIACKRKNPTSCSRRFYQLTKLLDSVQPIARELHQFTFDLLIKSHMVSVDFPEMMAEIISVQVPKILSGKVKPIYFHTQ
Assay: Androgen Receptor ELISA assay (PathScan AR ELISA) in VCaP cells: AR degradation, Dmax and DC50
Assay type: cell-based
Settings: Table 36; for DC50: read-out: VCaP DC50; for Dmax: VCaP
Outline: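 VCaP cells in phenol red-free RPMI with 5% charcoal-stripped FBS were grown at least 3 days, then given compound as 7 half-log doses in 0.1% DMSO with 0.1 nM R1881 for 24 h. Lysates went into a sandwich AR ELISA with TMB read at 450 nm.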

[1] = read-out: VCaP Dmax (%), VCaP cells
[2] = VCaP cells, read-out: VCaP Dmax (%)

| Compound | DC50 (VCaP cells) [nM] | Dmax [1] [%] | Dmax [2] [%] | VCaP Dmax (%) (VCaP cells) |
| --- | --- | --- | --- | --- |
| CC(C)[C@H](C(=O)N1C[C@H](O)C[C@H]1C(=O)N[C@@H](C)c1ccc(C#N)cc1)c1cc(OCCN2CCN(c3ccc(C(=O)N[C@H]4C(C)(C)[C@H](Oc5ccc(C#N)c(Cl)c5)C4(C)C)cn3)CC2)no1 [Example 696, N-((1r,3r)-3-(3-chloro-4-cyanophenoxy)-2,2,4,4-tetramethylcyclobutyl)-6-(4-(2-((5-((S)-1-((2S,4R)-2-(((S)-1-(4-cyanophenyl)ethyl)carb-amoyl)-4-hydroxypyrrolidin-1-yl)-3-methyl-1-oxobutan-2-yl)isoxazol-3-yl)oxy)ethyl)piperazin-1-yl)nicotinamide] | < 50 | < 25 | – | – |
| CC(NC(=O)C1CC(O)CN1C(=O)C(c1cc(OCCN2CCN(c3ccc(C(=O)NC4C(C)(C)C(Oc5ccc(C#N)c(Cl)c5)C4(C)C)cn3)CC2)no1)C(C)C)c1ccc(C#N)cc1 [Example 697, N-((1r,3r)-3-(3-chloro-4-cyanophenoxy)-2,2,4,4-tetramethylcyclobutyl)-6-(4-(2-((5-((R)-1-((2S,4R)-2-(((S)-1-(4-cyanophenyl)ethyl)carb-amoyl)-4-hydroxypyrrolidin-1-yl)-3-methyl-1-oxobutan-2-yl)isoxazol-3-yl)oxy)ethyl)piperazin-1-yl)nicotinamide] | < 50 | 26 to 50 | – | – |
| Cc1ncsc1-c1ccc([C@H](C)NC(=O)[C@@H]2C[C@@H](O)CN2C(=O)[C@@H](NC(=O)CN2CCN(CCCOCc3cc(C(=O)N[C@@H](C)Cn4ccc(-c5ccc(C#N)c(Cl)c5)n4)n[nH]3)CC2)C(C)(C)C)cc1 [Example 698, N-((S)-1-(3-(3-chloro-4-cyanophenyl)-1H-pyrazol-1-yl)propan-2-yl)-5-((3-(4-(2-(((S)-1-((2S,4R)-4-hydroxy-2-(((S)-1-(4-(4-methylthiazol-5-yl)phenyl)ethyl)carbam-oyl)pyrrolidin-1-yl)-3,3-dimethyl-1-oxobutan-2-yl)amino)-2-oxoethyl)piperazin-1-yl)propoxy)methyl)-1H-pyrazole-3-carboxamide] | < 50 | – | > 71 | – |
| Cc1ncsc1-c1ccc([C@H](C)NC(=O)[C@@H]2C[C@@H](O)CN2C(=O)[C@@H](NC(=O)COCCN(CCCc2ccc(C(=O)N[C@H]3C(C)(C)[C@H](Oc4ccc(C#N)c(Cl)c4)C3(C)C)nc2)CCC(F)(F)F)C(C)(C)C)cc1 [Example 699, N-((1r,3r)-3-(3-chloro-4-cyanophenoxy)-2,2,4,4-tetramethylcyclobutyl)-5-(3-((2-(2-(((S)-1-((2S,4R)-4-hydroxy-2-(((S)-1-(4-(4-methylthiazol-5-yl)phenyl)ethyl)carbam-oyl)pyrrolidin-1-yl)-3,3-dimethyl-1-oxobutan-2-yl)amino)-2-oxoethoxy)ethyl)(3,3,3-trifluoropropyl)amino)propyl)picolinamide] | < 50 | 26 to 50 | – | – |
| CNC(=O)[C@H]1CCCN1C(=O)C(NC(=O)COCCN1CCN(c2ccc(C(=O)N[C@H]3C(C)(C)[C@H](Oc4ccc(C#N)c(Cl)c4)C3(C)C)cn2)CC1)C(C)(C)C (stereo partly drawn) [Example 700, N-((1r,3r)-3-(3-chloro-4-cyanophenoxy)-2,2,4,4-tetramethylcyclobutyl)-6-(4-(2-(2-(((S)-3,3-dimethyl-1-((S)-2-(methylcarbamoyl)pyrroli-din-1-yl)-1-oxobutan-2-yl)amino)-2-oxoethoxy)ethyl)pipera-zin-1-yl)nicotinamide] | > 501 | – | < 25 | – |
| Cc1ncsc1-c1ccc([C@H](C)NC(=O)[C@@H]2C[C@@H](O)CN2C(=O)[C@@H](c2ncc(CCCN3CCN(c4ccc(C(=O)NC5C(C)(C)C(Oc6ccc(C#N)c(Cl)c6)C5(C)C)cn4)CC3)n2C)C(C)C)cc1 (stereo partly drawn) [Example 701, N-((1r,3r)-3-(3-chloro-4-cyanophenoxy)-2,2,4,4-tetramethylcyclobutyl)-6-(4-(3-(2-((R)-1-((2S,4R)-4-hydroxy-2-(((S)-1-(4-(4-methylthiazol-5-yl)phenyl)ethyl)carbam-oyl)pyrrolidin-1-yl)-3-methyl-1-oxobutan-2-yl)-1-methyl-1H-imidazol-5-yl)propyl)piperazin-1-y)nicotinamide] | > 501 | – | – | + (Dmax ≤ 25%) |
